Patent publication EP1820502A1, “Active substance combination comprising azolylcarbinol compounds” (LABORATORIOS DEL DR. ESTEVE, S.A., priority 2006, dated 2007)

Test system: mechanical allodynia/hyperalgesia in rats with unilateral ligatures of the sciatic nerve
Test: Randall-Selitto test (pressure thresholds for paw withdrawal and vocalization) in rats with unilateral ligatures of the sciatic nerve
Format: in vivo
Conditions: two weeks after sciatic nerve ligature, cizolirtine 5 mg/kg i.p., gabapentin 30 mg/kg i.p., or both 5 min apart; for pressure thresholds for triggering vocalization (analgesic effect): Figure 2; for pressure thresholds to trigger paw withdrawal (analgesic effect): ipsilateral right hindpaw, Figure 1
Method: Ligatures of the right sciatic nerve were made in pentobarbital (50 mg/kg i.p.)-anesthetized rats according to the classical protocol of Bennett and Xie (1988) which is well known by those skilled in the art. Sham operated animals were subjected to the same surgical procedure except that the nerve was not ligated. Prior to surgery and two weeks afterwards, rats were subjected to the Randall-Selitto test to determine the pressure thresholds for triggering withdrawal of the ipsilateral, right hindpaw and vocalization. Animals were then immediately injected with either cizolirtine (5 mg/kg i.p.), gabapentin (30 mg/kg i.p.) or both drugs. In the latter case, a 5 min interval elapsed between the injection of cizolirtine (1st) and that of gabapentin (2nd). Time 0 on the abscissa (see Figs 1 & 2) corresponded to the second injection. The Randall-Selitto test was then applied for the determination of pressure thresholds at various times up to at least 5 hours thereafter.

Compound	pressure thresholds for triggering vocalization (analgesic effect)	pressure thresholds to trigger paw withdrawal (analgesic effect)
CN(C)CCOC(c1ccccc1)c1ccnn1C (racemic) [Cizolirtine, (±)-N,N-dimethyl-2-((1-methyl-1H-pyrazol-5-yl)(phenyl)methoxy)ethanamine]	decrease the threshold to trigger vocalization	decrease the pressure threshold to trigger paw withdrawal
NCC1(CC(=O)O)CCCCC1 [Gabapentin, 1-(aminomethyl) cyclohexaneacetic acid]	decrease the threshold to trigger vocalization	decrease the pressure threshold to trigger paw withdrawal
